Each block holds one molecule with its values, some of them ahead of it. Calls of active or inactive are those of the source. The calls are words filed in the database; no cut-off is given here.
Assays:
HepG2 [1] = experiment: Antiproliferative activity against human HepG2 cells assessed as reduction in cell growth after 72 hrs by MTT assay; assay type: functional, cell-based; details: HepG2, 72 h
MCF7 = experiment: Antiproliferative activity against human MCF7 cells assessed as reduction in cell growth after 72 hrs by MTT assay; assay type: functional, cell-based; details: MCF7, 72 h
Homo sapiens [2] = organism: Homo sapiens; experiment: Inhibition of TrxR (unknown origin) at 5 uM by […]-reagent based assay relative to control
[3] = Inhibition of TrxR (unknown origin) by […]-reagent based assay; parameters: species or system Homo sapiens
[4] = Inhibition of TrxR (unknown origin); parameters: species or system Homo sapiens
Homo sapiens [5] = organism: Homo sapiens; experiment: Inhibition of TrxR (unknown origin) at 8 uM by […]-reagent based assay relative to control
HepG2 [6] = experiment: Inhibition of TrxR in human HepG2 cells assessed as decrease in green fluorescence at 12.5 to 50 uM incubated for 24 hrs by immunofluorescence assay; assay type: cell-based; details: dose 12.5-50 µM
HepG2 [7] = experiment: Inhibition of TrxR in human HepG2 cells incubated for 24 hrs by immunofluorescence assay; assay type: cell-based; details: dose 12.5-50 µM
HepG2 [8] = experiment: Induction of intracellular ROS generation in human HepG2 cells assessed as increase in green fluorescence at 6.25 to 12.5 uM incubated for 6 hrs by DCFH-DA probe based fluorescence microscopic analysis; assay type: functional, cell-based; details: dose 6.25-12.5 µM
HepG2 [9] = experiment: Induction of intracellular ROS generation in human HepG2 cells assessed as increase in red fluorescence at 6.25 to 12.5 uM incubated for 6 hrs by DHE probe based fluorescence microscopic analysis; assay type: functional, cell-based; details: dose 6.25-12.5 µM
HepG2 [10] = experiment: Induction of intracellular ROS generation in human HepG2 cells at 6.25 uM incubated for 3 to 12 hrs by DCFH-DA probe based fluorescence microscopic analysis; assay type: functional, cell-based; details: time 3-12 hrs
HepG2 [11] = experiment: Induction of apoptosis in human HepG2 cells assessed as viable cells at 12.5 uM incubated for 24 hrs by Annexin V/PI staining based flow cytometry analysis (reference value: 94.9%); assay type: functional; details: read-out: Activity
HepG2 [12] = experiment: Induction of apoptosis in human HepG2 cells assessed as viable cells at 25 uM incubated for 24 hrs by Annexin V/PI staining based flow cytometry analysis (reference value: 94.9%); assay type: functional; details: read-out: Activity
HepG2 [13] = experiment: Induction of apoptosis in human HepG2 cells assessed as viable cells at 50 uM incubated for 24 hrs by Annexin V/PI staining based flow cytometry analysis (reference value: 94.9%); assay type: functional; details: read-out: Activity
HepG2 [14] = experiment: Induction of apoptosis in human HepG2 cells assessed as early apoptotic cells at 12.5 uM incubated for 24 hrs by Annexin V/PI staining based flow cytometry analysis (reference value: 3.64%); assay type: functional
HepG2 [15] = experiment: Induction of apoptosis in human HepG2 cells assessed as early apoptotic cells at 25 uM incubated for 24 hrs by Annexin V/PI staining based flow cytometry analysis (reference value: 3.64%); assay type: functional
HepG2 [16] = experiment: Induction of apoptosis in human HepG2 cells assessed as early apoptotic cells at 50 uM incubated for 24 hrs by Annexin V/PI staining based flow cytometry analysis (reference value: 3.64%); assay type: functional
HepG2 [17] = experiment: Induction of apoptosis in human HepG2 cells assessed as late apoptotic cells at 12.5 uM incubated for 24 hrs by Annexin V/PI staining based flow cytometry analysis (reference value: 1.30%); assay type: functional
HepG2 [18] = experiment: Induction of apoptosis in human HepG2 cells assessed as late apoptotic cells at 25 uM incubated for 24 hrs by Annexin V/PI staining based flow cytometry analysis (reference value: 1.30%); assay type: functional
HepG2 [19] = experiment: Induction of apoptosis in human HepG2 cells assessed as late apoptotic cells at 50 uM incubated for 24 hrs by Annexin V/PI staining based flow cytometry analysis (reference value: 1.30%); assay type: functional
HepG2 [20] = experiment: Induction of apoptosis in human HepG2 cells assessed as necrotic cells at 12.5 uM incubated for 24 hrs by Annexin V/PI staining based flow cytometry analysis (reference value: 0.21%); assay type: functional
HepG2 [21] = experiment: Induction of apoptosis in human HepG2 cells assessed as necrotic cells at 25 uM incubated for 24 hrs by Annexin V/PI staining based flow cytometry analysis (reference value: 0.21%); assay type: functional
HepG2 [22] = experiment: Induction of apoptosis in human HepG2 cells assessed as necrotic cells at 50 uM incubated for 24 hrs by Annexin V/PI staining based flow cytometry analysis (reference value: 0.21%); assay type: functional
HepG2 [23] = experiment: Induction of apoptosis in human HepG2 cells assessed as late apoptotic cells incubated for 24 hrs by Annexin V/PI staining based flow cytometry analysis; assay type: functional, cell-based; details: dose 12.5-50 µM
HepG2 [24] = experiment: Induction of apoptosis in human HepG2 cells assessed as early apoptotic cells incubated for 24 hrs by Annexin V/PI staining based flow cytometry analysis; assay type: functional, cell-based; details: dose 12.5-50 µM
[25] = Inhibition of TrxR in human SGC-7901 cells; assay type: cell-based

IC50 (HepG2 [1]): 48.5 µM
IC50 (MCF7): 32.4 µM
inhibition (Homo sapiens [2]): 60.4%
SMILES: C[C@@]12CCCC(=O)[C@@H]1[C@H](O)C1=C(C2)C(=O)C=CC1=O

IC50 (HepG2 [1]): 34 µM
IC50 (MCF7): 24.2 µM
inhibition (Homo sapiens [2]): 19.6%
SMILES: C[C@@]12CCC[C@](O)(c3ccccc3)[C@@H]1CC1=C(C2)C(=O)C=CC1=O

IC50 (HepG2 [1]): > 100 µM
IC50 (MCF7): 59.3 µM
inhibition (Homo sapiens [2]): 19.6%
SMILES: C=C1CCC[C@@]2(C)CC3=C(C[C@@H]12)C(=O)C=CC3=O [CORDIACHROME B]

IC50 (HepG2 [1]): > 100 µM
IC50 (MCF7): 17.4 µM
inhibition (Homo sapiens [2]): 9.8%
SMILES: COc1ccc([C@@]2(O)CCC[C@@]3(C)CC4=C(C[C@H]32)C(=O)C=CC4=O)cc1

IC50 (HepG2 [1]): 69.5 µM
IC50 (MCF7): 13.6 µM
inhibition (Homo sapiens [2]): 15.7%
SMILES: C[C@@]12CCC[C@](O)(c3ccc(C(F)(F)F)cc3)[C@@H]1CC1=C(C2)C(=O)C=CC1=O

IC50 (HepG2 [1]): 71.7 µM
IC50 (MCF7): 43.7 µM
inhibition (Homo sapiens [2]): 13.7%
SMILES: C[C@@]12CCC[C@@H](CO)[C@@H]1CC1=C(C2)C(=O)C=CC1=O

IC50 (HepG2 [1]): 10.9 µM
IC50 (MCF7): 23.4 µM
inhibition (Homo sapiens [2]): 34.2%
IC50 [3]: 6.23 µM
IC50 [4]: 6.23 µM
SMILES: C=C1C(=O)O[C@H]2[C@H]1CCC(C)=C1CC[C@@](C)(O)[C@@H]12 [MICHELIOLIDE]

IC50 (HepG2 [1]): 19.4 µM
IC50 (MCF7): 28.2 µM
inhibition (Homo sapiens [2]): 71.9%
IC50 [3]: 3.5 µM
inhibition (Homo sapiens [5]): 100%
SMILES: C[C@@]12CCC[C@](O)(c3ccc(C#N)cc3)[C@@H]1CC1=C(C2)C(=O)C=CC1=O
inhibition (HepG2 [6]): Active
inhibition (HepG2 [7]): Dose-dependent-effect
Activity (HepG2 [8]): Active
Activity (HepG2 [9]): Active
Activity (HepG2 [10]): Active
viability at 12.5 µM (HepG2 [11]): 92.2%
viability at 25 µM (HepG2 [12]): 81.3%
viability at 50 µM (HepG2 [13]): 54%
Activity (HepG2 [14]): 5.54%
Activity (HepG2 [15]): 13.9%
Activity (HepG2 [16]): 22.7%
Activity (HepG2 [17]): 1.82%
Activity (HepG2 [18]): 3.39%
Activity (HepG2 [19]): 12.6%
Activity (HepG2 [20]): 0.3%
Activity (HepG2 [21]): 1.39%
Activity (HepG2 [22]): 10.7%
Activity (HepG2 [23]): Dose-dependent-effect
Activity (HepG2 [24]): Dose-dependent-effect

IC50 (HepG2 [1]): 55 µM
IC50 (MCF7): > 100 µM
IC50 [4]: 0.17 µM
SMILES: C[C@H]1CO[C@H]2C3=C(C(=O)C=CC3=O)[C@@H]3OC(=O)[C@H]4CC[C@@H]5[C@H]1CC[C@@]52[C@@H]43

IC50 (HepG2 [1]): 46.5 µM
IC50 (MCF7): 19.6 µM
inhibition (Homo sapiens [2]): 19.6%
SMILES: CCc1ccc([C@@]2(O)CCC[C@@]3(C)CC4=C(C[C@H]32)C(=O)C=CC4=O)cc1

IC50 (HepG2 [1]): 27.8 µM
IC50 (MCF7): 43.3 µM
inhibition (Homo sapiens [2]): 21.6%
SMILES: C[C@@]12CCC[C@@H](C(=O)O)[C@@H]1CC1=C(C2)C(=O)C=CC1=O

IC50 [25]: ~50 µM
SMILES: COc1ccccc1/C=C/C(=O)/C=C/c1ccccc1OC

IC50 (HepG2 [1]): > 100 µM
IC50 (MCF7): 36.9 µM
inhibition (Homo sapiens [2]): 11.8%
SMILES: Cc1ccc([C@@]2(O)CCC[C@@]3(C)CC4=C(C[C@H]32)C(=O)C=CC4=O)cc1

IC50 (HepG2 [1]): 45.3 µM
IC50 (MCF7): 28.8 µM
inhibition (Homo sapiens [2]): 23.5%
SMILES: C[C@@]12CCC[C@](O)(c3ccccn3)[C@@H]1CC1=C(C2)C(=O)C=CC1=O

IC50 (HepG2 [1]): > 100 µM
IC50 (MCF7): > 100 µM
SMILES: C[C@@]12CCC[C@](O)(c3ccoc3)[C@@H]1CC1=C(C2)C(=O)C=CC1=O

IC50 (HepG2 [1]): 62.6 µM
IC50 (MCF7): 30.7 µM
inhibition (Homo sapiens [2]): 18.5%
SMILES: C[C@@]12CCCC(=O)[C@@H]1CC1=C(C2)C(=O)C=CC1=O

IC50 (HepG2 [1]): > 100 µM
IC50 (MCF7): > 100 µM
SMILES: C=CC(=O)O[C@@H]1C2=C(C[C@]3(C)CCCC(=O)[C@H]13)C(=O)C=CC2=O

IC50 (HepG2 [1]): 36.6 µM
IC50 (MCF7): 15.6 µM
inhibition (Homo sapiens [2]): 34.9%
SMILES: C[C@@]12CCC[C@@H](O)[C@@H]1CC1=C(C2)C(=O)C=CC1=O

IC50 (HepG2 [1]): 59.6 µM
IC50 (MCF7): 16.4 µM
inhibition (Homo sapiens [2]): 19.7%
SMILES: C=CC(=O)O[C@@H]1CCC[C@@]2(C)CC3=C(C[C@@H]12)C(=O)C=CC3=O
